Experimental data published in patent US11225475B2, “Substituted pyridines as inhibitors of histone deacetylase” (Alkermes, Inc., priority 2017, dated 2022).

Tests used:
[1] = tested on: human myeloid (CFU-GM) progenitors; assay: Myeloid CFU assay (human bone marrow clonogenic progenitors); format: cell-based; conditions: 14 days in culture
Procedure: (§1) Clonogenic progenitors of human erythroid (CFU-E, BFU-E), granulocyte-monocyte (CFU-GM) and multipotential (CFU-GEMM) lineages were assessed in a semi-solid methylcellulose-based media formulation containing rhIL-3 (10 ng/mL), rhGM-SCF (10 ng/mL), rhSCF (50 ng/mL) and Epo (3 U/mL).
(§2) Normal human bone marrow light density cells derived from normal bone marrow (NorCal Biologics, California) and qualified at ReachBio, were stored in the gaseous phase of liquid nitrogen (−152° C.) until required for the assay. On the day of the experiment, the cells were thawed rapidly, the contents of each vial was diluted in 10 mL of Iscove's modified Dulbecco's medium containing 10% fetal bovine serum (IMDM+10% FBS) and washed by centrifugation (approximately 1200 r.p.m. for 10 minutes, room temperature). The supernatant was discarded and the cell pellets resuspended in a known volume of IMDM+10% FBS. A cell count (3% glacial acetic acid) and viability assessment (trypan blue exclusion test) was performed for the bone marrow sample.
(§3) On the day of the experiment, the compounds were dissolved in DMSO to a stock concentration of 10 mM. Serial dilutions were prepared from the stock concentration to achieve concentrations of 2 and 0.4 mM. When added to the methylcellulose-based media at 1:1000 (v/v), the final test concentrations of 10, 2 and 0.4 μM were achieved. Additionally, 5-FU was evaluated at 1.0, 0.1 and 0.01 μg/mL.
(§4) Clonogenic progenitors of the human erythroid (CFU-E and BFU-E) and myeloid (CFU-GM) lineages were set up in the methylcellulose-based media formulations described above. All compounds were added to the medium to give the final desired concentrations ([…] 5-Fluorouracil (Sigma Aldrich) was used as a positive control for progenitor proliferation (inhibition of colony growth) and was introduced to the human bone marrow cultures at 1.0, 0.1, and 0.01 μg/mL. Solvent control cultures (containing no compound but 0.1% DMSO) as well as standard controls (containing no compound and no DMSO) were also initiated.
(§5) Human myeloid and erythroid progenitor assays were initiated at 2.0×10^4 cells per culture. Following 14 days in culture, myeloid and erythroid colonies were assessed microscopically and scored by trained personnel. The colonies were divided into the following categories based on size and morphology: CFU-E, BFU-E, CFU-GM and CFU-GEMM.
(§6) The mean±one standard deviation of three replicate cultures was calculated for progenitors of each category (CFU-E, BFU-E, etc.). Two-tailed t-tests were performed to assess if there was a difference in the number of colonies generated between solvent control and treated cultures. Due to the potential subjectivity of colony enumeration, a p value of less than 0.01 is deemed significant. To calculate the concentration of 50% inhibition of colony growth (IC50) for each compound, a dose response curve was generated plotting the log of the compound concentration versus the percentage of control colony growth using XLfit software (IDBS). The concentration of 50% inhibition of colony growth (IC50) was calculated based on the sigmoid curve fit using Dose-Response, One-Site Model formula: y=A+[(B−A)/(1+((C/x)^D))], where A=the initial value (baseline response), B=maximum response, C=center (drug concentration that provokes a response halfway between A and B) and D=slope of the curve at midpoint. Further, plots and additional dose response curves were generated using GraphPad Prism 7.0.
(§7) Erythroid (CFU-E and BFU-E), myeloid (CFU-GM) and multi-potential (CFU-GEMM) colony enumeration was performed by trained personnel. The distribution of colony types as well as general colony and cellular morphology was analyzed. For statistical analysis colony numbers in compound treated cultures were compared to the solvent control cultures. […] The experiment was used to evaluate the potential effect of test compounds on human erythroid and myeloid progenitor proliferation in a methylcellulose-based medium. […]

[2] = tested on: human erythroid (CFU-E, BFU-E) progenitors; assay: Erythroid CFU assay (human bone marrow clonogenic progenitors); format: cell-based; conditions: 10 uM, 14 days in culture
Procedure: as §1, §2, §3, §4, §5, §6, §7

HDAC1 = HDAC1 (Homo sapiens (Human), UniProt Q13547); assay: HDAC1 enzymatic assay (deacetylation of peptide substrate, Caliper LabChip); format: biochemical; conditions: reaction time 17 hours, 25° C.
Chain of HDAC1 (Q13547 whole entry): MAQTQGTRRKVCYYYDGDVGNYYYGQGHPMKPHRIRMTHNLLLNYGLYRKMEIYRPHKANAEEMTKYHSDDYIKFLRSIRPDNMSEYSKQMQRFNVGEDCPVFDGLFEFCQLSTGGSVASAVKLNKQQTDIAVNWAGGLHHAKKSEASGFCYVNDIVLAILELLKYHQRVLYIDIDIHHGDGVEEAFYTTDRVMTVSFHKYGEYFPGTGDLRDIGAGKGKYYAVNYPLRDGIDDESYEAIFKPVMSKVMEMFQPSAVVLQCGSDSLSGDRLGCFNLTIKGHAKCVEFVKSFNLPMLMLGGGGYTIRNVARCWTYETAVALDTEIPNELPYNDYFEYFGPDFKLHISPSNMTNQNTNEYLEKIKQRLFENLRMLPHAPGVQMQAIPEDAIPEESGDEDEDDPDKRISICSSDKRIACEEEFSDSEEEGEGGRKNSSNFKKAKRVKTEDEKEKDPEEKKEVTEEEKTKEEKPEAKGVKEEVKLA
Procedure: (§8) The following describes an assay protocol for measuring the deacetylation of a peptide substrate by the enzymes HDAC2 or HDAC1. Enzyme, substrate, and cofactors are combined in a well of a microtiter plate and incubated for […] at 25° C. At the end of the incubation, the reaction is quenched by the addition of an SDS-containing buffer. Substrate and product are separated and quantified electrophoretically using the microfluidic-based LabChip 3000 Drug Discovery System from Caliper Life Sciences. The peptide substrate used in this assay is FAM-TSRHK(AC)KL-CONH2 (FAM is carboxyfluorescein). Peptide should be >98% purity by Capillary Electrophoresis. • 1. To a well of a 384-well plate, add 5 μL of 2× enzyme buffer. Using Labcyte Echo 550, add 100 nl compound. Enzyme and compound may be pre-incubated at this time if desired. • 2. Add 5 μL of 2× substrate buffer. • 3. Incubate plate at 25° C. for 17 hours. • 4. Terminate reaction by adding 40 μL of 1.55× stop buffer. • 5. Create job on a Caliper LabChip® 3000 Drug Discovery System. • 6. Load the plate and start electrophoresis using blue laser (480 nm) for excitation and green CCD (520 nm) for detection (CCD2). Reaction time=17 hours; Reaction temperature=25° C.
(§9) 1% DMSO (from compound) 1 μM FAM-TSRHK(AC)KL-CONH2 5 nM HDAC Enzyme (specific activity may vary from lot-to-lot, and enzyme concentration may need to be adjusted to yield ˜10-20% conversion of substrate to product).
(§10) Substrate and product peptides present in each sample are separated electrophoretically using the LabChip 3000 capillary electrophoresis instrument. As substrate and product peptides are separated, two peaks of fluorescence are observed. Change in the relative fluorescence intensity of the substrate and product peaks is the parameter measured, reflecting enzyme activity. Capillary electrophoregramms (RDA acquisition files) are analyzed using HTS Well Analyzer software (Caliper Life Sciences). The enzyme activity in each sample is determined as the product to sum ratio (PSR):P/(S+P), where P is the peak height of the product peptide and S is the peak height of the substrate peptide. For each compound, enzyme activity is measured at various concentrations (12 concentrations of compound spaced by 3× dilution intervals). Negative control samples (0%-inhibition in the absence of inhibitor) and positive control samples (100%-inhibition, in the presence of 20 mM EDTA) are assembled in replicates of four and are used to calculate %-inhibition values for each compound at each concentration. Percent inhibition (Pinh) is determined using following equation: Pinh=(PSR0%−PSRinh)/(PSR0%−PSR100%)*100, where PSRinh is the product sum ratio in the presence of inhibitor, PSR0% is the average product sum ration in the absence of inhibitor and PSR100% is the average product sum ratio in 100%-inhibition control samples.
(§11) The IC50 values of inhibitors are determined by fitting the inhibition curves (Pinh versus inhibitor concentration) by 4 parameter sigmoidal dose-response model using XLfit 4 software (MDS).

HDAC2 [3] = biological target: T1, HDAC2 (Homo sapiens (Human), UniProt Q92769); assay: HDAC2 enzymatic assay (deacetylation of peptide substrate, Caliper LabChip); format: biochemical; conditions: reaction time 17 hours, 25° C.
T1 sequence (Q92769 whole entry): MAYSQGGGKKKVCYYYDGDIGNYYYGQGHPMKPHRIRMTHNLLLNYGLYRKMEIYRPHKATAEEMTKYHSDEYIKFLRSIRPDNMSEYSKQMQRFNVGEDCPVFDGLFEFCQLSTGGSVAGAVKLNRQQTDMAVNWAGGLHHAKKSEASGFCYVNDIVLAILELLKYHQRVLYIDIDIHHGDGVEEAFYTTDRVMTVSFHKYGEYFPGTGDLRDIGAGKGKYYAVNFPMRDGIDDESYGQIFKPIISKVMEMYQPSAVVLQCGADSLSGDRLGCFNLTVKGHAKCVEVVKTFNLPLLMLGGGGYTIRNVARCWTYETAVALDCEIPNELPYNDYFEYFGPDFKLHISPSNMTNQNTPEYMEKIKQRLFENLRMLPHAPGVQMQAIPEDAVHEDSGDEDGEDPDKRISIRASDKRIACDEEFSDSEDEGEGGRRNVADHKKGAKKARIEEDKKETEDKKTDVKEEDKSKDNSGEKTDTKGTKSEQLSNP
Procedure: as §8, §9, §10, §11

HDAC2 [4] = biological target: T1, HDAC2; assay: HDAC2 enzymatic inhibition assay in SH-SY5Y cell lysate (HDAC-Glo 2); format: cell-based; conditions: SH-SY5Y cells, five hours incubation
Procedure: SH-SY5Y cells (Sigma) were cultured in Eagle's Modified Essential Medium supplemented with 10% fetal bovine serum and pen/strep. Twenty-four hours prior to compound dosing 20 uL of cells were plated in white 384 well plates at a density of 1,500 cells/well. Compounds were serially diluted in neat DMSO and then diluted 1:100 v/v into media without FBS and mixed. Media was removed from the plated cells and the diluted compounds in serum free media (1% v/v final DMSO) were added and incubated at 37.0 for five hours. Ten uL of HDAC-Glo 2 reagent with 0.1% Triton X-100 was then added, the plate was mixed and allowed to develop at room temperature for 100 minutes. Plates were then read with a Spectramax LMax luminometer employing a 0.4s integration time. Dose response curves were constructed with normalized data where CI-994 at 100 uM was defined as 100% inhibition and DMSO alone as 0% inhibition.

SMILES	Myeloid % control remaining @ 10 uM dose [1]	Erythroid % control remaining @ 10 uM dose [2]	IC50 (HDAC1)	IC50 (HDAC2 [3])	IC50 (HDAC2 [4])
CCn1cc2c(n1)CN(C(=O)Nc1nc(-c3ccc(F)cc3)ccc1N)C2 [Comparator 1, reference compound]	34%	22%			
Cc1nc2c(s1)CN(C(=O)Nc1nc(-c3ccc(F)cc3)ccc1N)C2 [Comparator 2, reference compound]	103%	45%			
COCCn1cc2c(n1)CN(C(=O)Nc1nc(-c3cccs3)ccc1N)C2 [Comparator 3, reference compound]	9%	18%			
COCCn1cc2c(n1)CN(C(=O)Nc1nc(-c3ccc(F)cc3)ccc1N)C2 [Comparator 4, reference compound]	39%	28%			
Cc1cc2c(cn1)CN(C(=O)Nc1nc(-c3ccc(F)cc3)ccc1N)C2 [Comparator 5, reference compound]	66.1%	25.7%			
COCc1cc2c(cn1)CN(C(=O)Nc1nc(-c3ccc(F)cc3)ccc1N)C2 [Comparator 6, reference compound]	58.9%	22.9%			
Nc1ccc(-c2ccc(F)cc2)nc1NC(=O)N1Cc2cc(CN3CC(F)C3)cnc2C1 [Comparator 7, reference compound]	82%	35%			
COCc1ccc2c(n1)CN(C(=O)Nc1nc(-c3ccc(F)cc3)ccc1N)C2 [Comparator 8, reference compound]	70%	33%			
CCc1ncc2c(n1)CN(C(=O)Nc1nc(-c3ccc(F)cc3)ccc1N)C2 [Comparator 9, reference compound]	79%	60%			
Cc1cc2c(cn1)CN(C(=O)Nc1nc(-c3ccc(F)cc3F)ccc1N)C2 [Compound 1]	100%	53%	100 to 500 nM	100 to 500 nM	100 to 1000 nM
